In BindingDB's records for doi:10.1021/jm970101g (Abbott Laboratories, 1997):

Biological target: Endothelin-1 receptor (Rattus norvegicus) (UniProt P26684)
Experiment: Ability to block the ET-1-induced hydrolysis of inositol phosphate in Endothelin A receptor of MMQ cells.

Endothelin-1 receptor (Rattus norvegicus), sequence (P26684 whole entry, looked up): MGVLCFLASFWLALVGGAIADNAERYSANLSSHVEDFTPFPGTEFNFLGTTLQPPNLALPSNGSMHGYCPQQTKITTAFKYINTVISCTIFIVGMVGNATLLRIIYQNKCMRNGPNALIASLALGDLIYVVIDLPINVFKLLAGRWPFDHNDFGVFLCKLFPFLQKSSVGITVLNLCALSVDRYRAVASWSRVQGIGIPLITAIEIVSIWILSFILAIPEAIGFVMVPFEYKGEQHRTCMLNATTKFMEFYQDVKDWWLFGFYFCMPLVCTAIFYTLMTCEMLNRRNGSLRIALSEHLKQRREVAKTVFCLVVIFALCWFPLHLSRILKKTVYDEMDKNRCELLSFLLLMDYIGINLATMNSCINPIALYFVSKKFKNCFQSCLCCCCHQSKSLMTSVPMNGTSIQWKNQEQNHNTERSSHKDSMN

Structure (SMILES): CCCN(CCN1C[C@H](c2ccc3c(c2)OCO3)[C@@H](C(=O)O)[C@@H]1c1ccc(OC)c(F)c1)S(=O)(=O)CCCCl [(2R,3R,4S)-4-Benzo[1,3]dioxol-5-yl-1-{2-[(3-chloro-propane-1-sulfonyl)-propyl-amino]-ethyl}-2-(3-fluoro-4-methoxy-phenyl)-pyrrolidine-3-carboxylic acid]
- IC50: 0.55 nM
